The source of these data is US7371766B2, “Curcumin analogs with anti-tumor and anti-angiogenic properties” (Emory University, priority 1999, dated 2008).

Where two headings read alike, the source gives them in different places.

Test [1] has as its system CCRF-CEM. The following applies: read-out: Median Growth Inhibitory Concentration (GI50), Leukemia, 48 hours.
In test [2] the test system is MDA-MB-231. The following applies: read-out: Median Growth Inhibitory Concentration (GI50); MDA-MB-231, Breast Cancer; 48 hours.
The test system of test [3] is SNB-19. The following applies: read-out: Median Growth Inhibitory Concentration (GI50); SNB-19, CNS Cancer; 48 hours.
Test [4] deals with SNB-75. The following applies: read-out: Median Growth Inhibitory Concentration (GI50); SNB-75, CNS Cancer; 48 hours.
The subject of test [5] is MCF-7. The following applies: read-out: Median Growth Inhibitory Concentration (GI50); MCF-7, Breast Cancer; 48 hours.
Test [6] relates to U251. The following applies: read-out: Median Growth Inhibitory Concentration (GI50); U251, CNS Cancer; 48 hours.
Test [7] relates to NCI-H522. The following applies: read-out: Median Growth Inhibitory Concentration (GI50); NCI-H522, Non-Small Cell Lung Cancer; 48 hours.
The subject of test [8] is MDA-MB-435. The following applies: read-out: Median Growth Inhibitory Concentration (GI50); MDA-MB-435, Breast Cancer; 48 hours.
Test [9] deals with SK-OV-3. The following applies: read-out: Median Growth Inhibitory Concentration (GI50); SK-OV-3, Ovarian Cancer; 48 hours.
Test [10] relates to UACC-257. The following applies: read-out: Median Growth Inhibitory Concentration (GI50); UACC-257, Melanoma; 48 hours.
Test [11] relates to OVCAR-3. The following applies: read-out: Median Growth Inhibitory Concentration (GI50); OVCAR-3, Ovarian Cancer; 48 hours.
In test [12] the test system is 786-0. The following applies: read-out: Median Growth Inhibitory Concentration (GI50); 786-0, Renal Cancer; 48 hours.
The test system of test [13] is UO-31. The following applies: read-out: Median Growth Inhibitory Concentration (GI50); UO-31, Renal Cancer; 48 hours.
Test [14] concerns HS 578T. The following applies: read-out: Median Growth Inhibitory Concentration (GI50), Breast Cancer, 48 hours.
The test system of test [15] is NCI-H23. The following applies: read-out: Median Growth Inhibitory Concentration (GI50); NCI-H23, Non-Small Cell Lung Cancer; 48 hours.
In test [16] the test system is T-47D. The following applies: read-out: Median Growth Inhibitory Concentration (GI50), Breast Cancer, 48 hours.
The subject of test [17] is ACHN. The following applies: read-out: Median Growth Inhibitory Concentration (GI50), Renal Cancer, 48 hours.
For test [18], the system named is MDA-N. The following applies: read-out: Median Growth Inhibitory Concentration (GI50), Breast Cancer, 48 hours.
The test system of test [19] is TK-10. The following applies: read-out: Median Growth Inhibitory Concentration (GI50); TK-10, Renal Cancer; 48 hours.
For test [20], the system named is HOP-92. The following applies: read-out: Median Growth Inhibitory Concentration (GI50); HOP-92, Non-Small Cell Lung Cancer; 48 hours.
The test system of test [21] is SF-268. The following applies: read-out: Median Growth Inhibitory Concentration (GI50); SF-268, CNS Cancer; 48 hours.
Test [22] has as its system HCT-15. The following applies: read-out: Median Growth Inhibitory Concentration (GI50); HCT-15, Colon Cancer; 48 hours.
Test [23] deals with K-562. The following applies: read-out: Median Growth Inhibitory Concentration (GI50); K-562, Leukemia; 48 hours.
In test [24] the test system is SR. The following applies: read-out: Median Growth Inhibitory Concentration (GI50), Leukemia, 48 hours.
Test [25] has as its system OVCAR-5. The following applies: read-out: Median Growth Inhibitory Concentration (GI50); OVCAR-5, Ovarian Cancer; 48 hours.
Test [26] concerns RPMI-8226. The following applies: read-out: Median Growth Inhibitory Concentration (GI50); RPMI-8226, Leukemia; 48 hours.
Test [27] relates to M14. The following applies: read-out: Median Growth Inhibitory Concentration (GI50); M14, Melanoma; 48 hours.
The test system of test [28] is UACC-62. The following applies: read-out: Median Growth Inhibitory Concentration (GI50); UACC-62, Melanoma; 48 hours.
In test [29] the test system is A498. The following applies: read-out: Median Growth Inhibitory Concentration (GI50); A498, Renal Cancer; 48 hours.
The test system of test [30] is KM12. The following applies: read-out: Median Growth Inhibitory Concentration (GI50); KM12, Colon Cancer; 48 hours.
Test [31] has as its system HT29. The following applies: read-out: Median Growth Inhibitory Concentration (GI50); HT29, Colon Cancer; 48 hours.
Test [32] has as its system HOP-92. Description: cells. The following applies: Homo sapiens, HOP-92, 48 h; for GI50: read-out: Median Growth Inhibitory Concentration (GI50); for CC50: read-out: Median Lethal Concentration (LC50).

Regarding “3,5-Bis(2-hydroxybenzylidene)-sulfone [EF11]”, the GI50 worked out at 22 µM in [1]; 25.6 µM in test [2]; 48 µM in test [3]; 20.3 µM in test [4]; 28.7 µM in test [5]; 35.7 µM in test [6]. Besides, the GI50 in [7] was 33.3 µM; in test [8], 31.4 µM; in test [9] it was more than 100 µM; in test [10], 29.8 µM; in test [11], 41.8 µM; in test [12], 41.3 µM. Further, the GI50 in [13] came out at 28.4 µM; in [14], 52.1 µM; in test [15], 35.8 µM; in test [16] it was 24.7 µM; in test [17], 41 µM; in test [18], 36.9 µM. The GI50 amounted to 41.2 µM in [19]; 23.5 µM in [20]; 24.6 µM in test [21]; 42.6 µM in test [22]; 27.4 µM in test [23]; 21.5 µM in test [24]. Moreover, the GI50 in test [25] was 89.2 µM; in test [26], 18.2 µM; in [27] it was 33.9 µM; in test [28] it was 21.3 µM; in [29], 34.2 µM; in test [30], 19.1 µM. Also, in [31], the GI50 was 45.9 µM.

For `OC(CCc1ccc(F)cc1F)CCc1ccc(F)cc1F` [EF19, 1,5-Bis(2,4-difluorophenyl)-pentan-3-ol], in [32], the GI50 came to 17.5 µM and the CC50 was determined as 59.3 µM.

As for `O=C(C=Cc1ccc(F)cc1F)C=Cc1ccc(F)cc1F` [EF9, 1,5-Bis(2,4-difluorophenyl)penta-1,4-dien-3-one], in test [32], the GI50 was 16.3 µM and the CC50 is 70.4 µM.

In the case of `CC1(/C=C/c2ccccc2O)C=Cc2ccccc2O1` (centres unmarked) [EF7], in [32], the GI50 turned out to be 12.7 µM and the CC50 stood at 54.9 µM.

Regarding `O=C1C(=Cc2ccccc2O)CCCC1=Cc1ccccc1O` [EF4, 2,6Bis(2-hydroxybenzylidene)cyclohexanone], in [32], the GI50 is 2.8 µM and the CC50 worked out at 41.4 µM.

Regarding `CC(=O)O.O=C1C(=Cc2ccccc2F)CNCC1=Cc1ccccc1F` [EF24, 3,5-Bis-(2-fluorobenzylidene)-piperidin-4-one-acetate], in [32], the GI50 was determined as 3 µM and the CC50 was determined as 23.3 µM.
